Experimental data from patent US20240254174A1 (priority 2023, published 2024).
“And” between values parts separate entries of the source, which are not always exact repeats. Identical values can stand only once. “Also recorded” adds a separate entry of the source.

Legend:
Pdcd4 protein = format: cell-based
BDNF [1] = format: cell-based
Pdcd4 = settings: mouse, in vivo
BDNF [2] = settings: mouse, in vivo
Target sequence in this assay (P21237 131-249): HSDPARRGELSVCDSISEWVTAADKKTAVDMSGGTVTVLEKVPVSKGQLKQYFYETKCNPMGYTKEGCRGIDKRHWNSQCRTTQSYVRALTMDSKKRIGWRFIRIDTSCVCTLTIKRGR

α7 nAChR [3] = target: T1, α7 nAChR (Homo sapiens, UniProt P36544); test: cell-based; format: cell-based
α9α10 nAChR = α9α10 nAChR (Homo sapiens, UniProt Q9GZZ6+Q9UGM1); test: cell-based
α7 nAChR [4] = target: T1, α7 nAChR; test: cell-based; settings: read-out: inhibition of ACh-mediated currents on α7 nAChR
nAChR subtypes = format: cell-based, Human
[5] = tested on: α7-nAChR transfected N2a cells; format: cell-based
[6] = tested on: non-transfected N2a cells
[7] = target: α7 nAChR (nicotinic acetylcholine receptor), expressed in Xenopus laevis oocytes (Human) (UniProt P36544); test: cell-based or functional assay
[8] = target: α9α10 nAChR, expressed in Xenopus laevis oocytes (Human) (UniProt Q9UGM1); test: cell-based or functional assay
[9] = tested on: α7-nAChR transfected cells; format: cell-based
[10] = tested on: non-transfected HEK cells; format: cell-based, human
[11] = in vivo

T1 sequence (P36544 23-502 limits assumed): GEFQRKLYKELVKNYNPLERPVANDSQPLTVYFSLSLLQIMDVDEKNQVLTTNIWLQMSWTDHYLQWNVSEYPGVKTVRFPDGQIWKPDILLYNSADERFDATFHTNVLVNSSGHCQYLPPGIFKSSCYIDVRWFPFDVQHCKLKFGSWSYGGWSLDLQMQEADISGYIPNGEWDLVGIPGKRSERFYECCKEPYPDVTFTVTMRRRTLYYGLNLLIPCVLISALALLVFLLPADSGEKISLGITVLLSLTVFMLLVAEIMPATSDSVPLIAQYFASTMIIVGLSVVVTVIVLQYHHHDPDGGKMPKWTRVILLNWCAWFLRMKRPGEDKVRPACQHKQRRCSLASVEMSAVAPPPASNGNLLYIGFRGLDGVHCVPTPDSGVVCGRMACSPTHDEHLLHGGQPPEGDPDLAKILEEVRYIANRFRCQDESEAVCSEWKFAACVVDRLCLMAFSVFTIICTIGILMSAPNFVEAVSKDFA
Chain of α7 nAChR (nicotinic acetylcholine receptor), expressed in Xenopus laevis oocytes (Human) (P36544 23-502): as the sequence (P36544 23-502 limits assumed) above
Chain of α9α10 nAChR (Q9UGM1 26-479 limits assumed): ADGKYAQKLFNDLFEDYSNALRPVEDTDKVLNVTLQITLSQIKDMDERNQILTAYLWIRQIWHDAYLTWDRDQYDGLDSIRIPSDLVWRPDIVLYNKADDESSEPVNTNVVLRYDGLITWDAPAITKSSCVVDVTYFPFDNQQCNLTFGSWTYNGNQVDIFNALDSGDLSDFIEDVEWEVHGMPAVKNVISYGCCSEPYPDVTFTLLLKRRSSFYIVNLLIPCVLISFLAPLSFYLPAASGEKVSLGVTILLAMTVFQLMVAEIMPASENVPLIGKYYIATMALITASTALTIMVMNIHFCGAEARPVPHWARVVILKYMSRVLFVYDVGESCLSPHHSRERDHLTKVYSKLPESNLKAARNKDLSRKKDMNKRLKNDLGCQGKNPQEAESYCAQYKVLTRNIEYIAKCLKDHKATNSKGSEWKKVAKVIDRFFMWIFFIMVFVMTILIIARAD
Chain of α9α10 nAChR (Q9GZZ6 25-450 limits assumed): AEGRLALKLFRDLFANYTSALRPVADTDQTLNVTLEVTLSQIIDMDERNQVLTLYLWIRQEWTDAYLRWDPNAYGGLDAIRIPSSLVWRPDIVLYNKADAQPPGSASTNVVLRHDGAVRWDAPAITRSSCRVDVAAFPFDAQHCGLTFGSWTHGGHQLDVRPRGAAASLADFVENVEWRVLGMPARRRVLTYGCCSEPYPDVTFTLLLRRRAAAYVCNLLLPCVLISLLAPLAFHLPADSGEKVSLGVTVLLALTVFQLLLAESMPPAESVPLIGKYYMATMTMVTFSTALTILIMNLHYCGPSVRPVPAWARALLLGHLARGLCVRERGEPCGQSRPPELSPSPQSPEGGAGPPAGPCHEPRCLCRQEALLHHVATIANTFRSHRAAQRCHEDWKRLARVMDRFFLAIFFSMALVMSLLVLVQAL
Chain of Pdcd4 (Q61823 whole entry): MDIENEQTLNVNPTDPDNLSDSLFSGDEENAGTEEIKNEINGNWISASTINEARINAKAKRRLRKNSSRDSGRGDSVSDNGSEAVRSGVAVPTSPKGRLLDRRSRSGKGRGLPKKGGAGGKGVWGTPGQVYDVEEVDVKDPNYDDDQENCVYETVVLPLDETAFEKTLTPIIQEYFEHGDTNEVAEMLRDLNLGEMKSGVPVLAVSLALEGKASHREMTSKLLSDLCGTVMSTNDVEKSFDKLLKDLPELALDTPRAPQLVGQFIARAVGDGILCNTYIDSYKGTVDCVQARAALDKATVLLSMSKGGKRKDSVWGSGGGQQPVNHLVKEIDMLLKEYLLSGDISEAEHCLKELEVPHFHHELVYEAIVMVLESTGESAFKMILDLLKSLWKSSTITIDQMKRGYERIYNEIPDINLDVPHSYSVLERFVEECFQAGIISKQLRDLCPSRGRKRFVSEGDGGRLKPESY
Chain of α9α10 nAChR, expressed in Xenopus laevis oocytes (Human) (Q9UGM1 23-479, chain 1 of 2): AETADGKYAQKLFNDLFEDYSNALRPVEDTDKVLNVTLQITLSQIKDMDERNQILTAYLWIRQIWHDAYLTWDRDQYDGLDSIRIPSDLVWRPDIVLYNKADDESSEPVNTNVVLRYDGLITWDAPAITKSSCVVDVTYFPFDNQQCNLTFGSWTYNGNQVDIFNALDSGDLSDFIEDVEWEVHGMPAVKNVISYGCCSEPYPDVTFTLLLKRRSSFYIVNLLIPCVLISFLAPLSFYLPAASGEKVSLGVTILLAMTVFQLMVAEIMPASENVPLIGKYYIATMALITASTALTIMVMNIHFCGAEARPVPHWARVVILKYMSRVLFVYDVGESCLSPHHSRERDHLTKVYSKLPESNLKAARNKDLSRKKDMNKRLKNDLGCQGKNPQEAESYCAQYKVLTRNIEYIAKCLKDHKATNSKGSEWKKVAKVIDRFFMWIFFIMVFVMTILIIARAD
Chain of α9α10 nAChR, expressed in Xenopus laevis oocytes (Human) (Q9GZZ6 25-450, chain 2 of 2, further chain): as the sequence (Q9GZZ6 25-450 limits assumed) above

In the case of “5′-GAGGCUAUGAGAGAAUUUATT-FL-3′ [siPdcd4]”, the “expression of Pdcd4 protein” value (Pdcd4 protein) is reported as “knock down”, the BDNF production (BDNF [1]) is reported as “enhance” and the “Pdcd4 expression in tissue” value (Pdcd4) is reported as “decreases”. The “BDNF production in tissue” value (BDNF [2]) was “enhance”.

For `CC[C@H](C)[C@H](NC(=O)[C@H](CC(=O)O)NC(=O)[C@H](CS)NC(=O)[C@H](CO)NC(=O)[C@@H](NC(=O)CNC(=O)[C@H](CC(C)C)NC(=O)[C@H](CCCNC(=N)N)NC(=O)[C@@H]1CCCN1C(=O)[C@H](CC(N)=O)NC(=O)[C@H](CCC(=O)O)NC(=O)[C@@H]1CCCN1C(=O)[C@H](CCSC)NC(=O)[C@H](Cc1c[nH]c2ccccc12)NC(=O)[C@@H](NC(=O)[C@@H](NC(=O)[C@@H](N)Cc1ccc(O)cc1)[C@@H](C)O)[C@@H](C)CC)[C@@H](C)O)C(=O)N[C@@H](Cc1ccccc1)C(=O)N[C@H](C(=O)N[C@@H](CC(N)=O)C(=O)N[C@@H](CO)C(=O)N[C@@H](CCCNC(=N)N)C(=O)NCC(=O)N[C@@H](CCCCN)C(=O)N[C@@H](CCCNC(=N)N)C(=O)N[C@@H](C)C(=O)N[C@@H](CO)C(=O)N[C@@H](CCCCN)C(=O)NCC(=O)O)[C@@H](C)O` [RVG peptide, reference compound], the IC50 (α7 nAChR [3]; α7 nAChR potency (IC50, concentration response profile)) was 32 µM and 31 µM, the IC50 (α9α10 nAChR) was 153 ± 14 µM and the inhibition at 100 µM (α7 nAChR [4]) was > 80%. The “inhibition of ACh-mediated currents on several other nAChR subtypes” value (nAChR subtypes) was > 25%, the “nAChR subtype selectivity (in words)” value (nAChR subtypes) was “not target specific; also recorded: slight preference for the α7-nAChR; also recorded: not very selective” and the neuro-/cytotoxicity (HEK cell lines) was “not neuro- or cyto-toxic”.

For `CSCC[C@H](NC(=O)[C@H](CCCCN)NC(=O)[C@H](CCCNC(=N)N)NC(=O)[C@@H](N)Cc1ccc(O)cc1)C(=O)N[C@@H](Cc1c[nH]c2ccccc12)C(=O)N[C@@H](CCSC)C(=O)N1CCC[C@H]1C(=O)N[C@@H](CCC(=O)O)C(=O)N[C@@H](CC(N)=O)C(=O)N1CCC[C@H]1C(=O)N[C@@H](CCCNC(=N)N)C(=O)N[C@@H](CC(C)C)C(=O)NCC(=O)N[C@H](C(=O)N[C@@H](CO)C(=O)N[C@@H](CS)C(=O)N[C@@H](CC(=O)O)C(=O)N[C@@H](C)C(=O)N[C@@H](Cc1ccccc1)C(=O)N[C@@H](CS)C(=O)N[C@@H](CO)C(=O)N[C@@H](CO)C(=O)N[C@@H](CCCNC(=N)N)C(=O)NCC(=O)N[C@@H](CCCCN)C(=O)N[C@H](C(=O)N[C@H](C(=O)N[C@@H](CCC(=O)O)C(=O)N[C@@H](CC(C)C)C(=O)NCC(=O)O)C(C)C)C(C)C)[C@@H](C)O` [lead peptide], the “α7 nAChR potency (IC50, concentration response profile)” value (α7 nAChR [3]) was “low μM”, the “inhibition of ACh-mediated currents on no more than two subtypes (positive hit criterion)” value (nAChR subtypes) was > 80% and the “inhibition of ACh-mediated currents on the other tested nAChR subtypes” value (nAChR subtypes) was < 25%. The “nAChR subtype selectivity (in words)” value (nAChR subtypes) was “minimally targeting nine other nAChR subtypes; also recorded: high selectivity”, the “time to entry into neuronal-like cells post-exposure” value [5] was ≤ 3 h and the “time visually present in neuronal-like cells” value [5] was “up to 72 hrs”. The neuro-/cytotoxicity (HEK cell lines) was “not neuro- or cyto-toxic”.

For CDAFCSSRGKVVELG [α-btx Region 3], the “effect of peptide regions on α7 nAChR mediated currents (in words)” value (shortened to “effect of peptide regions”) (α7 nAChR [3]) was “inhibit”.

With CDIFTNSRGKRASKG [RVG Region 3] the “effect of peptide regions” value (α7 nAChR [3]) was “slightly antagonizes”.

For DMSO, the “cell viability, positive control” value [6] was “kills cells”.

For MPENPRLGTS [RVG Region 2], the “effect of peptide regions” value (α7 nAChR [3]) was “minimal effects”.

“RVG peptide (rabies viral glycoprotein peptide)” gave a potency (concentration response profile, inhibition of ACh-mediated currents) [7] of 31 µM, a potency (concentration response, inhibition of ACh-mediated currents) [7] of 32 µM and a potency (concentration response profile, inhibition of ACh-mediated currents) [8] of 153 µM.

For YRKMW [α-btx Region 1], the “effect of peptide regions” value (α7 nAChR [3]) was “inhibit”.

With “YRKMWMPENPRLGTSCDAFCSSRGKVVELGRRRRRRRRR [lead CPP-9dR]” the “delivery of siPdcd4-FL into α7-nAChR transfected cells” value [9] was “can facilitate delivery”, the “delivery of siPdcd4-FL into non-transfected HEK cells” value [10] was “not into non-transfected HEK cells” and the “siPdcd4-FL delivery into mouse CNS” value [11] was “can facilitate siPdcd4-FL delivery into mouse CNS”. The brain regional distribution ([11]; mouse) was “accumulate in the hippocampus and prefrontal cortex”.

With YTIW [RVG Region 1] the “effect of peptide regions” value (α7 nAChR [3]) was “minimal effects”.

For α-bungarotoxin [reference compound], the “cell entry / labeling (in words)” value [5] was “unable to enter”.
